In ChEMBL document CHEMBL1153751, “Biologically active tetranorditerpenoids from the fungus Sclerotinia homoeocarpa causal agent of dollar spot in turfgrass” (J Nat Prod, 2009):
In brackets after ≈: the same amount, converted by molar mass. Activity calls are given as the source filed them. No cut-off for these calls is given here.

System: KB
Test: Cytotoxicity against human KB cells at 10 ug/ml after 48 hrs by neutral red dye staining
Assay type: functional, cell-based
Conditions: not given
With `C[C@@]12CC[C@@H](O)[C@]3(C)C(=O)O[C@H](C=C4COC(=O)C=C41)C23` (stereo partly drawn) the inhibition was “inactive”.
With `C[C@@]12CC[C@@H](O)[C@]3(C)C4=CC(=O)OC[C@]45O[C@@H]5[C@@H](OC1=O)C23` (stereo partly drawn) the inhibition was “inactive”.
In the case of `C=C1C(O)CC2[C@](C)(CCC[C@]2(C)C(=O)O)C1CC(=O)O` (stereo partly drawn), the inhibition is reported as “inactive”.

System: SK-OV-3
Test: Cytotoxicity against human SKOV3 cells at 10 ug/ml after 48 hrs by neutral red dye staining
Assay type: functional, cell-based
Conditions: not given
In the case of `C[C@@]12CC[C@@H](O)[C@]3(C)C(=O)O[C@H](C=C4COC(=O)C=C41)C23` (stereo partly drawn), the inhibition is reported as “inactive”.
With `C[C@@]12CC[C@@H](O)[C@]3(C)C4=CC(=O)OC[C@]45O[C@@H]5[C@@H](OC1=O)C23` (stereo partly drawn) the inhibition was “inactive”.
For `C=C1C(O)CC2[C@](C)(CCC[C@]2(C)C(=O)O)C1CC(=O)O` (stereo partly drawn), the inhibition was “inactive”.

System: SK-MEL
Test: Cytotoxicity against human SK-MEL cells after 48 hrs by neutral red dye staining
Assay type: functional, cell-based
Conditions: not given
For `C[C@@]12CC[C@@H](O)[C@]3(C)C4=CC(=O)OC[C@]45O[C@@H]5[C@@H](OC1=O)C23` (stereo partly drawn), the IC50 was 10 µg/mL (≈ 32.6 µM).

System: Lactuca sativa
Test: Phytotoxicity against Lactuca sativa at 0.001 mg/ml
Assay type: functional, organism-based
Conditions: not given
In the case of `C[C@@]12CC[C@@H](O)[C@]3(C)C(=O)O[C@H](C=C4COC(=O)C=C41)C23` (stereo partly drawn), the Activity is reported as “inactive”.
With `C=C1C(O)CC2[C@](C)(CCC[C@]2(C)C(=O)O)C1CC(=O)O` (stereo partly drawn) the Activity was “inactive”.

System: Agrostis stolonifera
Test: Phytotoxicity against Agrostis stolonifera at 0.1 mg/ml
Assay type: functional, organism-based
Conditions: not given
In the case of `C[C@@]12CC[C@@H](O)[C@]3(C)C4=CC(=O)OC[C@]45O[C@@H]5[C@@H](OC1=O)C23` (stereo partly drawn), the Activity is reported as “Active”.
For `C=C1C(O)CC2[C@](C)(CCC[C@]2(C)C(=O)O)C1CC(=O)O` (stereo partly drawn), the Activity was “inactive”.

System: Agrostis stolonifera
Test: Phytotoxicity against Agrostis stolonifera at 0.001 mg/ml
Assay type: functional, organism-based
Conditions: not given
For `C[C@@]12CC[C@@H](O)[C@]3(C)C(=O)O[C@H](C=C4COC(=O)C=C41)C23` (stereo partly drawn), the Activity was “inactive”.
In the case of `C[C@@]12CC[C@@H](O)[C@]3(C)C4=CC(=O)OC[C@]45O[C@@H]5[C@@H](OC1=O)C23` (stereo partly drawn), the Activity is reported as “inactive”.
For `C=C1C(O)CC2[C@](C)(CCC[C@]2(C)C(=O)O)C1CC(=O)O` (stereo partly drawn), the Activity was “inactive”.

System: Plasmodium falciparum
Test: Antiplasmodial activity against chloroquine-resistant Plasmodium falciparum W2 assessed as LDH activity at 4760 ng/ml after 72 hrs by malstat reagent method
Assay type: functional, organism-based
Conditions: not given
For `C[C@@]12CC[C@@H](O)[C@]3(C)C(=O)O[C@H](C=C4COC(=O)C=C41)C23` (stereo partly drawn), the inhibition was “inactive”.
For `C[C@@]12CC[C@@H](O)[C@]3(C)C4=CC(=O)OC[C@]45O[C@@H]5[C@@H](OC1=O)C23` (stereo partly drawn), the inhibition was “inactive”.
For `C=C1C(O)CC2[C@](C)(CCC[C@]2(C)C(=O)O)C1CC(=O)O` (stereo partly drawn), the inhibition was “inactive”.

System: Lactuca sativa
Test: Phytotoxicity against Lactuca sativa at 1 mg/ml
Assay type: functional, organism-based
Conditions: not given
With `C[C@@]12CC[C@@H](O)[C@]3(C)C(=O)O[C@H](C=C4COC(=O)C=C41)C23` (stereo partly drawn) the Activity was “Active”.
In the case of `C[C@@]12CC[C@@H](O)[C@]3(C)C4=CC(=O)OC[C@]45O[C@@H]5[C@@H](OC1=O)C23` (stereo partly drawn), the Activity is reported as “Active”.

System: not listed separately
Test: Cytotoxicity against pig LLC-PK11 cells at 10 ug/ml after 48 hrs by neutral red dye staining
Assay type: functional, cell-based, Sus scrofa
Conditions: not given
With `C[C@@]12CC[C@@H](O)[C@]3(C)C(=O)O[C@H](C=C4COC(=O)C=C41)C23` (stereo partly drawn) the “Cytotoxicity at 10 ug/ml” value was “Not Active”.
In the case of `C[C@@]12CC[C@@H](O)[C@]3(C)C4=CC(=O)OC[C@]45O[C@@H]5[C@@H](OC1=O)C23` (stereo partly drawn), the “Cytotoxicity at 10 ug/ml” value is reported as “Not Active”.
For `C=C1C(O)CC2[C@](C)(CCC[C@]2(C)C(=O)O)C1CC(=O)O` (stereo partly drawn), the “Cytotoxicity at 10 ug/ml” value was “Not Active”.

System: Agrostis stolonifera
Test: Phytotoxicity against Agrostis stolonifera at 0.01 mg/ml
Assay type: functional, organism-based
Conditions: not given
In the case of `C[C@@]12CC[C@@H](O)[C@]3(C)C(=O)O[C@H](C=C4COC(=O)C=C41)C23` (stereo partly drawn), the Activity is reported as “inactive”.
In the case of `C=C1C(O)CC2[C@](C)(CCC[C@]2(C)C(=O)O)C1CC(=O)O` (stereo partly drawn), the Activity is reported as “inactive”.

System: Plasmodium falciparum
Test: Antiplasmodial activity against chloroquine-sensitive Plasmodium falciparum D6 assessed as LDH activity at 4760 ng/ml after 72 hrs by malstat reagent method
Assay type: functional, organism-based
Conditions: not given
With `C[C@@]12CC[C@@H](O)[C@]3(C)C(=O)O[C@H](C=C4COC(=O)C=C41)C23` (stereo partly drawn) the inhibition was “inactive”.
For `C[C@@]12CC[C@@H](O)[C@]3(C)C4=CC(=O)OC[C@]45O[C@@H]5[C@@H](OC1=O)C23` (stereo partly drawn), the inhibition was “inactive”.
For `C=C1C(O)CC2[C@](C)(CCC[C@]2(C)C(=O)O)C1CC(=O)O` (stereo partly drawn), the inhibition was “inactive”.

System: BT-549
Test: Cytotoxicity against human BT549 cells at 10 ug/ml after 48 hrs by neutral red dye staining
Assay type: functional, cell-based
Conditions: not given
With `C[C@@]12CC[C@@H](O)[C@]3(C)C(=O)O[C@H](C=C4COC(=O)C=C41)C23` (stereo partly drawn) the inhibition was “inactive”.
With `C[C@@]12CC[C@@H](O)[C@]3(C)C4=CC(=O)OC[C@]45O[C@@H]5[C@@H](OC1=O)C23` (stereo partly drawn) the inhibition was “inactive”.
With `C=C1C(O)CC2[C@](C)(CCC[C@]2(C)C(=O)O)C1CC(=O)O` (stereo partly drawn) the inhibition was “inactive”.

System: Lemna aequinoctialis
Test: Phytotoxicity against Lemna paucicostata after 7 days
Assay type: functional, organism-based
Conditions: 168 h, read-out: I50
For `C[C@@]12CC[C@@H](O)[C@]3(C)C4=CC(=O)OC[C@]45O[C@@H]5[C@@H](OC1=O)C23` (stereo partly drawn), the IC50 was 6.42 µM.

System: Vero
Test: Cytotoxicity against african green monkey Vero cells at 4760 ng/ml after 48 hrs by neutral red dye staining
Assay type: cell-based
Conditions: Chlorocebus sabaeus
For `C[C@@]12CC[C@@H](O)[C@]3(C)C(=O)O[C@H](C=C4COC(=O)C=C41)C23` (stereo partly drawn), the “inhibition (INH)” value was “Not Active”.
In the case of `C[C@@]12CC[C@@H](O)[C@]3(C)C4=CC(=O)OC[C@]45O[C@@H]5[C@@H](OC1=O)C23` (stereo partly drawn), the “inhibition (INH)” value is reported as “Not Active”.
For `C=C1C(O)CC2[C@](C)(CCC[C@]2(C)C(=O)O)C1CC(=O)O` (stereo partly drawn), the “inhibition (INH)” value was “Not Active”.

System: SK-MEL
Test: Cytotoxicity against human SK-MEL cells at 10 ug/ml after 48 hrs by neutral red dye staining
Assay type: functional, cell-based
Conditions: not given
In the case of `C[C@@]12CC[C@@H](O)[C@]3(C)C(=O)O[C@H](C=C4COC(=O)C=C41)C23` (stereo partly drawn), the inhibition is reported as “inactive”.
For `C=C1C(O)CC2[C@](C)(CCC[C@]2(C)C(=O)O)C1CC(=O)O` (stereo partly drawn), the inhibition was “inactive”.

System: Agrostis stolonifera
Test: Phytotoxicity against Agrostis stolonifera at 1 mg/ml
Assay type: functional, organism-based
Conditions: not given
For `C[C@@]12CC[C@@H](O)[C@]3(C)C(=O)O[C@H](C=C4COC(=O)C=C41)C23` (stereo partly drawn), the Activity was “Active”.
For `C[C@@]12CC[C@@H](O)[C@]3(C)C4=CC(=O)OC[C@]45O[C@@H]5[C@@H](OC1=O)C23` (stereo partly drawn), the Activity was “Active”.
For `C=C1C(O)CC2[C@](C)(CCC[C@]2(C)C(=O)O)C1CC(=O)O` (stereo partly drawn), the Activity was “inactive”.

System: Lactuca sativa
Test: Phytotoxicity against Lactuca sativa at 0.1 mg/ml
Assay type: functional, organism-based
Conditions: not given
With `C[C@@]12CC[C@@H](O)[C@]3(C)C4=CC(=O)OC[C@]45O[C@@H]5[C@@H](OC1=O)C23` (stereo partly drawn) the Activity was “Active”.
With `C=C1C(O)CC2[C@](C)(CCC[C@]2(C)C(=O)O)C1CC(=O)O` (stereo partly drawn) the Activity was “inactive”.

System: Lactuca sativa
Test: Phytotoxicity against Lactuca sativa at 0.01 mg/ml
Assay type: functional, organism-based
Conditions: not given
For `C[C@@]12CC[C@@H](O)[C@]3(C)C(=O)O[C@H](C=C4COC(=O)C=C41)C23` (stereo partly drawn), the Activity was “inactive”.
With `C=C1C(O)CC2[C@](C)(CCC[C@]2(C)C(=O)O)C1CC(=O)O` (stereo partly drawn) the Activity was “inactive”.
